In PMC5698418 (Nature Communications, 2017):
Several values for one entry are separate records, joined by “and”; a condition that tells them apart may be missing. Identical values can stand only once. Counter-ions that a name gives are not always drawn. Like-named read-outs stand apart in the source and are kept apart here.

Tested on: BDNF-induced nuclear Arc expression in primary cortical neurons
Test: Chemogenomic screen: high-content image-based assay of BDNF-induced nuclear Arc expression (96-well)
Assay type: cell-based, mouse
Procedure: To increase the throughput of our pharmacological screening for modulators of Arc, the above mentioned assay was adapted to cultures of mouse primary cortical neurons in 96-well plates.
All 319 compounds were initially tested at a final concentration of 16.7 µM with three biological replicates.
Screening of compounds in the chemogenomic library was carried out using DIV13 primary forebrain cortical neurons cultured on poly-L-lysine/laminin-coated 96-well plates (Ibidi USA, Madison, WI). Cells were seeded at a density of 30,000 cells per well and treated with the compound library and BDNF according to the experimental design presented in Fig. 3a. After experimental treatment, cells were processed for Arc and acetyl-H3K9 immunocytochemistry according to the protocol described above. Both antigens (Arc and acetyl-H3K9) were imaged using an IN Cell Analyzer 6000 imaging system and a ×40 objective. […] High-throughput quantification of nuclear Arc immunofluorescence signal was performed in a similar fashion than the low-throughput procedure described above but with the exception that acetyl-H3K9 was used as a nuclear mask to guide the automated quantification of nuclear Arc immunofluorescence signal.

[1] = chemogenomic (SMART) screen, BDNF-induced nuclear Arc expression, primary cortical neurons, BDNF control 19.5
[2] = nuclear Arc-positive cells relative to DMSO + BDNF control, negative values = decrease
[3] = nuclear Arc-positive cells relative to DMSO control (BDNF), negative = decrease
[4] = BDNF-induced nuclear Arc expression, primary cortical neurons, chemogenomic screen

Molecule: Cn1c(=O)c2[nH]cnc2n(C)c1=O [Aminophylline]
- Percentage of cell with nuclear Arc immunostaining above 2σ threshold [1]: 23.1%
- Fold-change — Normalized to DMSO control (BDNF) [2]: 1.2 fold

Molecule: O=C(c1ccc2c(c1)OCCO2)N1CCCCC1 [CX-546]
- Percentage of cell with nuclear Arc immunostaining above 2σ threshold: 6.5%
- Fold-change — Normalized to DMSO control (BDNF) [3]: -3.0 fold

Molecule: O=C(CCCN1CCC2(CC1)C(=O)NCN2c1ccccc1)c1ccc(F)cc1 [Spiperone]
- Percentage of cell with nuclear Arc immunostaining above 2σ threshold [1]: 23.6%
- Fold-change — Normalized to DMSO control (BDNF) [2]: 1.2 fold

Molecule: C/C=C1\[C@H]2C=C(C)C[C@]1(N)c1ccc(=O)[nH]c1C2 [Huperzine A]
- Percentage of cell with nuclear Arc immunostaining above 2σ threshold [1]: 14.8%

Molecule: COc1ccc(C2CNC(=O)C2)cc1OC1CCCC1 (stereo not shown) [Rolipram]
- Percentage of cell with nuclear Arc immunostaining above 2σ threshold [1]: 21.4%
- Fold-change — Normalized to DMSO control (BDNF) [2]: 1.1 fold

Molecule: CN1CCc2cc3c(cc2[C@H]1[C@@H]1OC(=O)c2c1ccc1c2OCO1)OCO3 [(+)-Bicuculline]
- Percentage of cell with nuclear Arc immunostaining above 2σ threshold: 20.9%
- Fold-change — Normalized to DMSO control (BDNF) [2]: 1.1 fold

Molecule: O=c1c(-c2ccc(O)cc2)coc2cc(O)ccc12 [Daidzein]
- Percentage of cell with nuclear Arc immunostaining above 2σ threshold [1]: 40.8%
- Fold-change — Normalized to DMSO control (BDNF) [2]: 2.1 fold

Molecule: Nc1c2c(nc3ccccc13)CCCC2 [Tacrine]
- Percentage of cell with nuclear Arc immunostaining above 2σ threshold [4]: 8.3%

Molecule: C[C@H](NCc1ccc(OCc2cccc(F)c2)cc1)C(N)=O [Safinamide]
- Percentage of cell with nuclear Arc immunostaining above 2σ threshold [1]: 25.5%
- Fold-change — Normalized to DMSO control (BDNF) [2]: 1.3 fold

Molecule: CC(=O)[C@H]1CC[C@H]2[C@@H]3CC[C@H]4C[C@](C)(O)CC[C@]4(C)[C@H]3CC[C@]12C [Ganaxolone]
- Percentage of cell with nuclear Arc immunostaining above 2σ threshold: 22.6%
- Fold-change — Normalized to DMSO control (BDNF) [2]: 1.2 fold

Molecule: CCN1CCCC1CNC(=O)c1cc(S(N)(=O)=O)ccc1OC (stereo not shown) [Sulpiride]
- Percentage of cell with nuclear Arc immunostaining above 2σ threshold [1]: 26.5%
- Fold-change — Normalized to DMSO control (BDNF) [2]: 1.4 fold

Molecule: Clc1ccc(C23CNCC2C3)cc1Cl (stereo not shown) [DOV-216,303]
- Percentage of cell with nuclear Arc immunostaining above 2σ threshold: 6.5%
- Fold-change — Normalized to DMSO control (BDNF) [3]: -3.0 fold

Molecule: Cc1ccc(Sc2ccccc2N2CCNCC2)c(C)c1 [Vortioxetine]
- Percentage of cell with nuclear Arc immunostaining above 2σ threshold [4]: 0.0%

Molecule: COc1ccc(CN(CCN(C)C)c2ccccn2)cc1 [Pyrilamine maleate]
- Percentage of cell with nuclear Arc immunostaining above 2σ threshold [1]: 25.2%
- Fold-change — Normalized to DMSO control (BDNF) [2]: 1.3 fold

Molecule: CCSc1ccc2c(c1)N(CCCN1CCN(C)CC1)c1ccccc1S2 [Thiethylperazine]
- Percentage of cell with nuclear Arc immunostaining above 2σ threshold [4]: 0.529%

Molecule: CN1CCN2c3ccccc3Cc3ccccc3C2C1 (stereo not shown) [Mianserin]
- Percentage of cell with nuclear Arc immunostaining above 2σ threshold [1]: 18.5%

Molecule: COc1ccc2c(c1)[C@]13CCCC[C@@H]1[C@H](C2)N(C)CC3 [Dextromethorphan]
- Percentage of cell with nuclear Arc immunostaining above 2σ threshold [1]: 19.7%
- Fold-change — Normalized to DMSO control (BDNF) [2]: 1.0 fold

Molecule: O=C(O)c1cccc(-c2noc(-c3ccccc3F)n2)c1 [Ataluren]
- Percentage of cell with nuclear Arc immunostaining above 2σ threshold [1]: 38.6%
- Fold-change — Normalized to DMSO control (BDNF) [2]: 2.0 fold

Molecule: Cc1cccc(C)c1NC(=O)CN1CCCC1=O [Nefiracetam]
- Percentage of cell with nuclear Arc immunostaining above 2σ threshold [1]: 19.7%
- Fold-change — Normalized to DMSO control (BDNF) [2]: 1.0 fold

Molecule: NC(=O)C1=CN([C@@H]2O[C@H](COP(=O)(O)OP(=O)(O)OC[C@H]3O[C@@H](n4cnc5c(N)ncnc54)[C@H](O)[C@@H]3O)[C@@H](O)[C@H]2O)C=CC1 [NADH]
- Percentage of cell with nuclear Arc immunostaining above 2σ threshold [1]: 25.0%
- Fold-change — Normalized to DMSO control (BDNF) [2]: 1.3 fold

Molecule: OCCOCCN1CCN(C(c2ccccc2)c2ccc(Cl)cc2)CC1 (stereo not shown) [Hydroxyzine dihydrochloride]
- Percentage of cell with nuclear Arc immunostaining above 2σ threshold [1]: 27.2%
- Fold-change — Normalized to DMSO control (BDNF) [2]: 1.4 fold

Molecule: C[C@H](O)[C@H](O)[C@H]1CNc2nc(N)[nH]c(=O)c2N1 [Sapropterin]
- Percentage of cell with nuclear Arc immunostaining above 2σ threshold [1]: 49.8%
- Fold-change — Normalized to DMSO control (BDNF) [2]: 2.6 fold

Molecule: COCCCC/C(=N\OCCN)c1ccc(C(F)(F)F)cc1 [Fluvoxamine]
- Percentage of cell with nuclear Arc immunostaining above 2σ threshold [4]: 8.5%

Molecule: O=C(O)c1ccc(O)c2ncccc12 [IOX1]
- Percentage of cell with nuclear Arc immunostaining above 2σ threshold [1]: 44.2%
- Fold-change — Normalized to DMSO control (BDNF) [2]: 2.3 fold

Molecule: CN1CCCC(CC2c3ccccc3Sc3ccccc32)C1 (stereo not shown) [Metixene]
- Percentage of cell with nuclear Arc immunostaining above 2σ threshold [4]: 6.7%

Molecule: CN1[C@H]2C[C@H](OC(=O)[C@H](CO)c3ccccc3)C[C@@H]1[C@@H](O)C2 [Anisodamine]
- Percentage of cell with nuclear Arc immunostaining above 2σ threshold: 25.5%
- Fold-change — Normalized to DMSO control (BDNF) [2]: 1.3 fold

Molecule: N#Cc1ccccc1-c1cc(-c2ccccn2)cn(-c2ccccc2)c1=O [Perampanel]
- Percentage of cell with nuclear Arc immunostaining above 2σ threshold: 12.4%

Molecule: Cc1nc2n(c(=O)c1CCN1CCC(c3noc4cc(F)ccc34)CC1)CCCC2 [Risperidone]
- Percentage of cell with nuclear Arc immunostaining above 2σ threshold: 6.3%

Molecule: CN(C)CCC=C1c2ccccc2C=Cc2ccccc21 [Cyclobenzaprine]
- Percentage of cell with nuclear Arc immunostaining above 2σ threshold [1]: 14.1%

Molecule: CCCn1cnc2c1c(=O)n(CCCCC(C)=O)c(=O)n2C [Propentofylline]
- Percentage of cell with nuclear Arc immunostaining above 2σ threshold [1]: 33.4%
- Fold-change — Normalized to DMSO control (BDNF) [2]: 1.7 fold

Molecule: OC(CNc1ccccc1)Cn1c2ccc(Br)cc2c2cc(Br)ccc21 (stereo not shown) [P7C3]
- Percentage of cell with nuclear Arc immunostaining above 2σ threshold: 1.7%
- Fold-change — Normalized to DMSO control (BDNF) [3]: -11.2 fold

Molecule: Clc1cccc(Cl)c1N=C1NCCN1 [Clonidine]
- Percentage of cell with nuclear Arc immunostaining above 2σ threshold [1]: 12.2%

Molecule: O=C(c1ccc(F)cc1)C1CCN(CCn2c(=O)[nH]c3ccccc3c2=O)CC1 [Ketanserin]
- Percentage of cell with nuclear Arc immunostaining above 2σ threshold [1]: 20.4%
- Fold-change — Normalized to DMSO control (BDNF) [2]: 1.0 fold

Molecule: Cc1ccc(C23CNCC2C3)cc1 (stereo not shown) [Bicifadine]
- Percentage of cell with nuclear Arc immunostaining above 2σ threshold [4]: 7.2%

Molecule: NCC1(CC(=O)O)CCCCC1 [Gabapentin]
- Percentage of cell with nuclear Arc immunostaining above 2σ threshold: 9.0%

Molecule: O=C(O)C(Cc1c[nH]c2ccccc12)N1C(=O)c2ccccc2C1=O (stereo not shown) [RG-108]
- Percentage of cell with nuclear Arc immunostaining above 2σ threshold: 35.1% and 27.5%
- Fold-change — Normalized to DMSO control (BDNF) [2]: 1.8 fold and 1.4 fold

Molecule: Cc1cc(C(=O)NNCc2ccccc2)no1 [Isocarboxazid]
- Percentage of cell with nuclear Arc immunostaining above 2σ threshold [1]: 21.2%
- Fold-change — Normalized to DMSO control (BDNF) [2]: 1.1 fold

Molecule: C[C@]12N[C@H](Cc3ccccc31)c1ccccc12 [Dizocilpine]
- Percentage of cell with nuclear Arc immunostaining above 2σ threshold: 21.2%
- Fold-change — Normalized to DMSO control (BDNF) [2]: 1.1 fold

Molecule: COc1ccc2[nH]cc(CCNC(C)=O)c2c1 [Melatonin]
- Percentage of cell with nuclear Arc immunostaining above 2σ threshold [1]: 25.2%
- Fold-change — Normalized to DMSO control (BDNF) [2]: 1.3 fold

Molecule: O=C(O[C@@H]1Cc2c(O)cc(O)cc2O[C@@H]1c1cc(O)c(O)c(O)c1)c1cc(O)c(O)c(O)c1 [(-)-Epigallocatechin gallate]
- Percentage of cell with nuclear Arc immunostaining above 2σ threshold [1]: 38.0%
- Fold-change — Normalized to DMSO control (BDNF) [2]: 1.9 fold

Molecule: LM22A-4
- Percentage of cell with nuclear Arc immunostaining above 2σ threshold [1]: 14.0%
- Fold-change — Normalized to DMSO control (BDNF) [2]: -1.4 fold

Molecule: CCc1c(C)[nH]c2c1C(=O)C(CN1CCOCC1)CC2 (stereo not shown) [Molindone]
- Percentage of cell with nuclear Arc immunostaining above 2σ threshold [1]: 36.4%
- Fold-change — Normalized to DMSO control (BDNF) [2]: 1.9 fold

Molecule: CCOc1ccccc1OC(c1ccccc1)C1CNCCO1 (stereo not shown) [Reboxetine]
- Percentage of cell with nuclear Arc immunostaining above 2σ threshold: 8.6%

Molecule: CCOc1ccc(Cc2nccc3cc(OCC)c(OCC)cc23)cc1OCC [Ethaverine]
- Percentage of cell with nuclear Arc immunostaining above 2σ threshold [4]: 1.3%
